≈ marks a conversion by molar mass, not a printed value. Structures can show the parent of a compound that is named as a salt. Where two headings read alike, the source gives them in different places.

The test concerns bacterial pathogens resistant against quinolones antibiotics. Description: MIC against quinolone-resistant bacterial pathogens (Table 5). The class given is cell-based.
The mark [1] stands for this setting: Enterococcus faecalis, read-out: MICs, Enterococcus faecalis vancomycin-resistant (VanB) clinical isolate, GP14.
[2] abbreviates: Enterococcus faecium, read-out: MICs, Enterococcus faecium vancomycin-resistant (VanA) clinical isolate, GP17.
Where [3] appears, read: Providencia stuartii, GN24, read-out: MICs, Providencia stuartii multi-drug resistant clinical isolate, GN24.
Where [4] appears, read: Pseudomonas aeruginosa, GN64, read-out: MICs, Pseudomonas aeruginosa levofloxacin-resistant clinical isolate, GN64.
Setting [5] is: Staphylococcus aureus, MRSA, read-out: MICs, EMRSA16 Staphylococcus aureus (MRSA) SSCmec type 2, GP33.
Where [6] appears, read: Staphylococcus aureus, read-out: MICs, Staphylococcus aureus levofloxacin-resistant clinical isolate, amino acid changes GrlA, GrlB & GyrA, GP82.
Where [7] appears, read: Staphylococcus aureus, read-out: MICs, Staphylococcus aureus multi-drug-resistant clinical isolate, GP5.
Setting [8] is: Streptococcus pneumoniae, read-out: MICs, Streptococcus pneumoniae multi-drug resistant clinical isolate, GP24.
Where [9] appears, read: read-out: MICs, Acinetobacter haumannii levofloxacin-resistant clinical isolate, GN54.
Where [10] appears, read: Escherichia coli, GN03, read-out: MICs, Escherichia coli multi-drug resistant clinical isolate, GN03.

On to `Cc1c(-c2ccc(N)c(F)c2)ccn2c(=O)c(C(=O)O)cc(C3CC3)c12` [Example 2 K salt, 8-(4-amino-3-fluoro-phenyl)-1-cyclopropyl-9-methyl-4-oxo-4H-quinolizine-3-carboxylic acid], for which the MIC under setting [1] came to 0.5 µg/mL; the MIC under setting [2] is 2 µg/mL; the MIC under setting [3] amounted to 1 µg/mL; the MIC under setting [4] was 2 µg/mL; the MIC under setting [5] came out at 0.12 µg/mL; the MIC under setting [6] was 0.06 µg/mL. Also, the MIC was determined as 0.06 µg/mL under setting [7], 0.12 µg/mL under setting [8] and 2 µg/mL under setting [9].

As to `Cc1c(-c2ccc(N)nc2)ccn2c(=O)c(C(=O)O)cc(C3CC3)c12` [Example 21 K salt, 8-(6-amino-pyridin-3-yl)-1-cyclopropyl-9-methyl-4-oxo-4H-quinolizine-3-carboxylic acid], the MIC under setting [1] was determined as 1 µg/mL; the MIC under setting [2] was 4 µg/mL; the MIC under setting [10] came out at 16 µg/mL; the MIC under setting [3] amounted to 2 µg/mL; the MIC under setting [4] is 4 µg/mL; the MIC under setting [5] worked out at 0.25 µg/mL. For the same compound, the MIC reads like this: under setting [6], 0.12 µg/mL; under setting [7], 0.25 µg/mL; under setting [8], 0.12 µg/mL; under setting [9], 4 µg/mL.

As to `Cc1c(-c2ccc3[nH]ncc3c2)ccn2c(=O)c(C(=O)O)cc(C3CC3)c12` [Example 23 K salt, 1-cyclopropyl-8-(1H-indazol-5-yl)-9-methyl-4-oxo-4H-quinolizine-3-carboxylic acid], the MIC under setting [1] is 0.25 µg/mL; the MIC under setting [2] amounted to 0.5 µg/mL; the MIC under setting [10] turned out to be 4 µg/mL; the MIC under setting [3] came out at 1 µg/mL; the MIC under setting [4] was 2 µg/mL; the MIC under setting [5] was found to be 0.03 µg/mL. Further, the MIC is, setting by setting: under setting [7], 0.03 µg/mL; under setting [8], 0.03 µg/mL; under setting [9], 1 µg/mL.

On to `Cc1c(-c2cc(F)c(N)cc2F)ccn2c(=O)c(C(=O)O)cc(C3CC3)c12` [Example 28 K salt, 8-(4-amino-2,5-difluoro-phenyl)-1-cyclopropyl-9-methyl-4-oxo-4H-quinolizine-3-carboxylic acid], for which the MIC runs as follows: under setting [1], 0.25 µg/mL; under setting [2], 1 µg/mL; under setting [10], 16 µg/mL; under setting [3], 1 µg/mL; under setting [4], 4 µg/mL; under setting [5], 0.06 µg/mL. Further, the MIC under setting [6] came out at 0.03 µg/mL, the MIC under setting [7] came to 0.06 µg/mL, the MIC under setting [8] came to 0.06 µg/mL and the MIC under setting [9] is 2 µg/mL.

Take `Cc1c(-c2ccc(O)cc2)ccn2c(=O)c(C(=O)O)cc(C3CC3)c12` [Example 46 K salt, 1-cyclopropyl-8-(4-hydroxy-phenyl)-9-methyl-4-oxo-4H-quinolizine-3-carboxylic acid]: the MIC was 0.5 µg/mL under setting [1]; 1 µg/mL under setting [2]; 8 µg/mL under setting [10]; 2 µg/mL under setting [3]; 4 µg/mL under setting [4]; 0.06 µg/mL under setting [5]. Moreover, the MIC was 0.03 µg/mL under setting [6], 0.06 µg/mL under setting [7], 0.12 µg/mL under setting [8] and 2 µg/mL under setting [9].

Turning to `C[C@H]1COc2c(N3CCN(C)CC3)c(F)cc3c(=O)c(C(=O)O)cn1c23` [Levofloxacin], the MIC is, setting by setting: (Acinetobacter haumannii levofloxacin-resistant clinical isolate, GN54, read-out: MICs) at least 16 µg/mL; (EMRSA16 Staphylococcus aureus (MRSA) SSCmec type 2, GP33, read-out: MICs) at least 16 µg/mL; (Enterococcus faecalis vancomycin-resistant (VanB) clinical isolate, GP14, read-out: MICs) at least 16 µg/mL; (Enterococcus faecium vancomycin-resistant (VanA) clinical isolate, GP17, read-out: MICs) at least 16 µg/mL; (Escherichia coli multi-drug resistant clinical isolate, GN03, read-out: MICs) at least 16 µg/mL; (Providencia stuartii multi-drug resistant clinical isolate, GN24, read-out: MICs) at least 16 µg/mL. For the same compound, the MIC is at least 16 µg/mL (Pseudomonas aeruginosa levofloxacin-resistant clinical isolate, GN64, read-out: MICs); at least 16 µg/mL (Staphylococcus aureus multi-drug-resistant clinical isolate, GP5, read-out: MICs); 8 µg/mL (≈ 22.1 µM) under setting [6]; 2 µg/mL (≈ 5.53 µM) (Streptococcus pneumoniae multi-drug resistant clinical isolate, GP24, read-out: MICs).

The record behind these values is US20150141435A1, “2-PYRIDONE ANTIMICROBIAL COMPOSITIONS” (Emergent BioSolutions, priority 2010, published 2015).
